# Experimental data published in patent US20240075160A1, “COMBINATION THERAPIES FOR TREATMENT OF CANCER” (MedImmune, LLC, priority 2022, published 2024).
# Assays:
# human IFN-7 = assay: IFN-γ release in supernatants of co-culture of tumor cells and tumor reactive CD8+ T cells (Mesoscale ELISA); format: cell-based; conditions: MART-1 reactive T cell-PC9 co-culture
# Protocol: Antigen specific CD8+ T-cells secrete IFN-γ upon tumor antigen recognition. To evaluate the amount of IFN-7 detected within the supernatants of co-cultures containing PC9-MART1-GFP tumor cells and tumor reactive CD8+ T cells, separate parallel co-cultures were established in Nunc 96 well plates (Sigma Aldrich) alongside the Incucyte optical plates. For evaluation of IFN-7 release, supernatants were harvested from co-cultures in the Nunc 96 well plates 24, 72 and 144 hours later. IFN-7 was measured using Mesoscale Discovery multi-spot ELISA for human IFN-7 as per the manufacturer's instructions. […] For the MART-1 tumor antigen reactive T cell-PC9 lung adenocarcinoma co-culture, IFN-7 secretion by T cells was retained in the presence of the hRS7(TROP2)-TOP1i ADC alone, AZD2936 and MEDI5752 both alone and in combination with the ADC, FIG. 4C-4D. AZD7789 enhanced IFN-7, which was retained in combination with the hRS7(TROP2)-TOP1i ADC FIG. 4E.
# PC9-MART1-GFP cells = assay: T cell mediated cytolysis in co-culture of MART-1 reactive CD8+ T cells and tumor cells (Incucyte, loss of GFP); format: cell-based; conditions: single agent; bispecific 2 nM, ADC 0.05 μg/ml; E:T 4:1 or 5:1; five days after T cell addition
# Protocol: A co-culture assay system was developed which utilized melanoma antigen Melan A (MART-1) reactive T cells and PC9 lung adenocarcinoma cells engineered to express both the MART-1 antigen and Green Fluorescent Protein (GFP). Tumor cell lysis was evaluated utilizing the Sartorius Incucyte Live Cell Analysis System whereby loss of GFP signal intensity was used as a surrogate marker for cell death. Briefly, PC9-MART1-GFP cells were harvested from cell culture flasks using trypsin, washed once with complete RPMI media as defined in Example 1, resuspended and added to each well of 96 well clear bottom, opaque walled optical plates for 24 hours at 37° C. in 5% CO2 as per the manufacturer's instructions. The PD-1-TIGIT (AZD2936), PD-1-TIM3 (AZD7789) or PD-1-CTLA4 (MEDI5752) bispecific antibodies were used at 2 nM concentration. The hRS7(TROP2)-TOP1i ADC was used at 0.05 μg/ml. Treatments were added alone or in combination to wells immediately before rested, antigen-specific CD8+ T cells were added at effector to target (E:T) ratios of 4:1 or 5:1 effector T cells to target tumor cells depending on the donor. Tumor cell death and percent cytolysis were measured five days after T cell addition by image analysis of GFP intensity per well. Data are from experiments with 3 unique donors. Statistical significance for the indicated comparisons is denoted as * p<0.05, ** p<0.01, p<0.001.
# [1] = agent alone, supernatants at 24, 72 and 144 hours
# [2] = in combination with the hRS7(TROP2)-TOP1i ADC
Substance,IFN-7 secretion by T cells (human IFN-7; [1]),IFN-7 secretion by T cells (human IFN-7; [2]),T cell mediated cytolysis of PC9 tumor cells (PC9-MART1-GFP cells)
AZD2936: PD-1-TIGIT bispecific antibody,retained,retained,enhanced
AZD7789: anti-TIM-3/PD-1 bispecific binding protein comprising sequences of monoclonal antibody 013-1 (TIM-3) and LO115 (PD-1),enhanced,retained,enhanced
MEDI5752: anti-PD-1/CTLA-4 bispecific antibody,retained,retained,enhanced
